# Measurements as given in US7320977B2, “Substituted 2-phenyl-3(2h)-pyridazinones” (Bayer Healthcare AG, priority 2002, dated 2008).
# Experiments:
# lysyl oxidase = molecular target: T1, lysyl oxidase (Bos taurus, UniProt P33072); test: Test for lysyl oxidase-inhibitory effect (homovanillic acid/horseradish peroxidase fluorescence); format: biochemical; settings: enzyme from bovine aortas, 15 minutes preincubation, pH 8.2; read-out: IC50 (inhibition of lysyl oxidase)
# T1 construct: The enzyme was isolated from bovine aortas; from tissue; host or cells: bovine aorta
# T1 sequence (P33072 170-418): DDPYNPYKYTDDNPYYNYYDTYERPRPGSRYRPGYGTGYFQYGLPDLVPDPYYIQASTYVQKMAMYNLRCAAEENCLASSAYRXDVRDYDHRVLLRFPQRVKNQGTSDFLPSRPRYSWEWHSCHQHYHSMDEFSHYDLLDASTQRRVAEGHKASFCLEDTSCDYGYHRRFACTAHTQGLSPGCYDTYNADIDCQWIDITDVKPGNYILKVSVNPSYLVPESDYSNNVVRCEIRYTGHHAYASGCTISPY
# Description: 1. Test for Lysyl Oxidase-inhibitory Effect:
# The enzyme was isolated from bovine aortas in a modification of a method of Kagan et al. [Biochem. J. 177, 203-214 (1979)] by extraction with phosphate buffer containing urea, followed by precipitation and chromatography on DEAE-Sephadex.
# The test solution (total volume 200 μl) is composed of 1.5 mM homovanillinic acid, 5 mM 1,5-diaminopentane, 1 unit of horseradish peroxidase and 1.5 M urea in 50 mM sodium borate buffer of pH 8.2. The enzyme was preincubated with the compound to be tested for 15 minutes; the reaction was started by adding diaminopentane and homovanillin/horseradish peroxidase. The fluorescence of the homovanillin dimer which formed was measured with excitation at 315 nm and emission at 425 nm. This test arrangement is a modification of the method of Trackman et al. [Anal. Biochem. 113, 336-341 (1981)].
# The IC50 as a measure of the inhibition of lysyl oxidase is found by testing various concentrations of substance and using the concentration-effect plots.
# [1] = system: hepatic fibrosis following bile duct ligature in rats; test: Model of bile duct ligature, histological morphometry (picrosirius red); format: in vivo, rat; settings: 15 mg/kg p.o. b.i.d.
# Description: b) Model of Bile Duct Ligature:
# The experiments were carried out with female Sprague-Dawley rats (200-220 g). In order to generate chronic fibrosis, the bile duct (common hepatic duct) was doubly ligated in a surgical procedure. Ethibloc® occlusion emulsion (Ethicon, Norderstedt, Germany), a mixture of prolamine and ethanol, was instilled retrogradely into the biliary system [J. Kountouras, B. Billing, P. Scheuer, Prolonged bile obstruction: A new experimental model for cirrhosis in the rat, Br. J. Exp. Pathol. 65, 305-311 (1984); G. Boigk, L. Stroedter, H. Herbst, J. Waldschmidt, E. O. Riecken, D. Schuppan, Silymarin retards collagen accumulation in early and advanced biliary fibrosis secondary to complete bile duct obliteration in rats, Hepatology 26, 643-649 (1997)]. […] The animals were sacrificed and investigated three weeks after the surgical procedure.
# a) Histological Assessments/Morphometry:
# Standardized transverse cylinders of liver tissue (approx. 10×2 mm) were cut out of the right anterior lobe of each rat liver. Frozen sections were stained with 0.1% picrosirius red solution to detect scar collagen associated with hepatic fibrosis. The contrast was increased by counterstaining with fast green. The extent of hepatic fibrosis was found as a percentage of the part stainable with picrosirius red in each section. […]
# [2] = system: hepatic fibrosis resulting from chronic administration of carbon tetrachloride in rats; test: Model of chronic carbon tetrachloride intoxication, liver collagen content (4-hydroxyproline); format: in vivo, rat; settings: CCl4-treated female Sprague-Dawley rats, 30 mg/kg p.o. o.d., 6 weeks; vehicle 1.921, intact 0.504; P =0.059 vs. vehicle
# Source text: a) Model of Chronic Carbon Tetrachloride Intoxication:
# Chronic carbon tetrachloride (CCl4) treatment is a standard method for generating hepatic fibrosis of nonviral origin and subsequent cirrhosis. It is generally accepted as a model of hepatic fibrosis and cirrhosis in humans [E. McLean, A. McLean, P. Sutton, Instant Fibrosis: An improved method for producing cirrhosis of the liver in rats by simultaneous administration of carbon tetrachloride and phenobarbitone, Br. J. Exp. Pathol. 50, 502-506 (1969)].
# Female Sprague-Dawley rats (200-220 g) were employed. In order to achieve maximum microsomal metabolization of the CCl4, the animals received isoniazid in the drinking water (1 g/l) for one week before starting the administration of carbon tetrachloride. CCl4 was administered orally each fifth day in a dose of 0.2 ml/100 g of bodyweight in a 1:1 mixture with mineral oil. […] Necropsy was performed 6 weeks after starting the treatment.
# The total collagen content was estimated by means of the tissue 4-hydroxyproline concentration. […] After incubation at 35° C. for 3 hours, the absorption was measured at 573 nm. […]
# [3] = system: serum-induced hepatic fibrosis in rats; test: Model of serum-induced hepatic fibrosis, liver collagen content (4-hydroxyproline); format: in vivo, rat; settings: serum-treated female Sprague-Dawley rats, 3 mg/kg p.o. o.d.; vehicle 2.070, intact 0.577; P <0.01
# Description: c) Model of Serum-induced Hepatic Fibrosis: A septal fibrosis can be induced in rats also by repeated injection of heterologous serum. For this purpose, 0.5 ml of sterile-filtered porcine serum is administered i.p. to each animal twice a week [Bhunchet and Wake, Hepatology 16, 1452-73 (1992)]. The experiments were carried out with female Sprague-Dawley rats (200-220 g). After 6-8 weeks, the septal fibrosis is histologically manifest and can also be detected through an increase in the liver hydroxyproline content. b) Collagen Content: The total collagen content was estimated by means of the tissue 4-hydroxyproline concentration. The method of Prockop and Udenfried [D. J. Prockop and S. Udenfried, A specific method for the analysis of hydroxyproline in tissues and urine, Anal. Biochem. 1, 228-239 (1960)] in modified form was used: liver samples with a wet weight of 60-90 mg were dried and then hydrolyzed in 6 N hydrochloric acid at 100° C. for 17 hours. The hydrolyzate was dried by evaporation and reconstituted in 5 ml of deionized water. […] After incubation at 35° C. for 3 hours, the absorption was measured at 573 nm. […]
SMILES,melting point [°C],IC50 (lysyl oxidase) [nM],also measured
CCOC(=O)c1ccc(-n2ncc(-n3ccnc3)c(Oc3ccc(-c4ccccc4)cc3)c2=O)cc1 [compound 72],151,–,–
"N#CCCN [β-Aminopropionitrile (BAPN), reference compound]",–,10000,–
O=c1c(Oc2ccc(-n3cccc3)cc2)c(-n2ccnc2)cnn1-c1ccc(Cl)cc1 [compound 78],188,–,–
O=c1c(Oc2ccc(-c3ccccc3)cc2)c(-n2ccnc2)cnn1-c1ccc(F)cc1 [compound 74],119,–,–
CS(=O)(=O)Nc1ccc(-c2ccc(Oc3c(-n4ccnc4)cnn(-c4ccc(Cl)cc4)c3=O)cc2)cc1 [compound 83],180,–,–
"O=c1c(Oc2ccc(-c3ccc(F)cc3)cc2)c(N2CCC(CO)CC2)cnn1-c1ccc(Cl)cc1 [Ex. 25, 2-(4-Chlorophenyl)-4-[(4′-fluoro-1,1′-biphenyl-4-yl)oxy]-5-[4-(hydroxymethyl)-1-piperidinyl]-3(2H)-pyridazinone]",–,5,–
N#Cc1ccc(-c2ccc(Oc3c(-n4ccnc4)cnn(-c4ccc(Cl)cc4)c3=O)cc2)cc1 [compound 80],276,–,–
"CCOc1c(N2CCOCC2)cnn(C)c1=O [4-ethoxy-2-methyl-5-morpholino-3(2H)-pyridazinone, reference compound]",–,> 4000,–
"O=c1c(Oc2ccc(-c3ccccc3)cc2)c(N2CCNCC2)cnn1-c1ccc(Cl)cc1 [Ex. 12, 4-(1,1′-Biphenyl-4-yloxy)-2-(4-chlorophenyl)-5-(1-piperazinyl)-3(2H)-pyridazinone]",–,3,–
Cc1ccc(-n2ncc(-n3ccnc3)c(Oc3ccc(-c4ccc(C#N)cc4)cc3)c2=O)cc1 [compound 76],220,–,–
Cc1ccc(-n2ncc(-n3ccnc3)c(Oc3ccc(-c4ccccc4)cc3)c2=O)cc1 [compound 77],177,–,–
"CCN1CCN(c2cnn(-c3ccc(C)cc3)c(=O)c2Oc2ccc(-c3ccc(O)cc3)cc2)CC1 [Ex. 5, 5-(4-Ethyl-1-piperazinyl)-4-[(4′-hydroxy-1,1′-biphenyl-4-yl)oxy]-2-(4-methylphenyl)-3(2H)-pyridazinone]",–,17,–
O=c1c(Oc2ccc(-c3ccc(O)cc3)cc2)c(-n2ccnc2)cnn1-c1ccc(Cl)cc1 [Ex. 81],–,7,–
CC(=O)NCc1cc(-c2ccc(Oc3c(N4CCNCC4)cnn(-c4ccc(Cl)cc4)c3=O)cc2)ccc1F [Ex. 176],–,10,–
"CS(=O)(=O)N1CCN(c2cnn(-c3ccc(Cl)cc3)c(=O)c2Oc2ccc(-c3ccc(F)c(CN)c3)cc2)CC1 [Ex. 8, 4-{[3′-(Aminomethyl)-4′-fluoro-1,1′-biphenyl-4-yl]oxy}-2-(4-chlorophenyl)-5-[4-(methylsulfonyl)-1-piperazinyl]-3(2H)-pyridazinone]",–,7,–
O=c1c(Oc2ccc(-c3ccccc3)cc2)c(-n2ccnc2)cnn1-c1ccc(Cl)cc1 [Ex. 82],–,11,"Proportionate area stainable with picrosirius red: average in % ([1]; bile duct ligated female Sprague-Dawley rats, three weeks, vehicle 7.4, sham 0.21, P <0.05 vs. vehicle): 4.98%; inhibition in fibrosis ([1]; bile duct ligated rats, worked out from Table 2): approx. 34%; 4-Hydroxyproline content: average in mg/g dry weight [2]: 1.260 mg/g dry weight"
O=c1c(Oc2ccc(-c3ccc(F)cc3)cc2)c(-n2ccnc2)cnn1-c1ccc([N+](=O)[O-])cn1 [compound 71],186,–,–
CN1CCN(c2cnn(-c3ccc(Cl)cc3)c(=O)c2Oc2ccc(-c3ccccc3)cc2)CC1.Cl [Ex. 34],162,9,4-Hydroxyproline content: average in mg/g dry weight [3]: 1.293 mg/g dry weight
O=c1c(Oc2ccc(-c3ccccc3)cc2)c(-n2ccnc2)cnn1-c1cccc(F)c1 [compound 73],148,–,–
